According to article PMC8241751, “Influence of the Dabcyl group on the cellular uptake of cationic peptides: short oligoarginines as efficient cell-penetrating peptides” (Amino Acids, 2021):
Where a SMILES comes first, the peptide text is derived from it. The star is where a group is joined. 5FAM = O=C1OC2(c3ccc(O)cc3Oc3cc(O)ccc32)c2ccc(C(=O)*)cc21; X1 = CN(C)c1ccc(/N=N/c2ccc(C(=O)*)cc2)cc1

Experiments:
HL-60 cells = assay: Cellular uptake by flow cytometry on HL-60 cells; type: cell-based, human; conditions: 90 min, 37 °C, serum-free
Experimental: HL-60 cells were cultured as described above. To study the cellular uptake of fluorescent labelled compounds, 10^5 cells per well were plated on 24-well plates. After 24 h incubation at 37 °C, cells were treated with the compounds solved in the corresponding serum-free media for 90 min. The cellular uptake was analysed at 1, 5 and 10 µM concentrations. Cells treated with serum-free media for 90 min were used as control. After incubation, treatment solutions were removed and the cells were treated with 100 μL trypsin for 2 min to remove the membrane proteins in order to eliminate non-specific binding of conjugates. The effect of trypsin was terminated by 900 μL HPMI (glucose, NaHCO3, NaCl, HEPES, KCl, MgCl2, CaCl2, Na2HPO4·2H2O) (Kapus et al. [1994]) containing 10% foetal calf serum, and the cells were transferred from the plate to FACS-tubes. Cells were centrifuged at 216 g at 4 °C for 5 min and the supernatant was removed. After this procedure, cells were resuspended in 500 µL HPMI, and the intracellular fluorescence intensity of HL-60 cells was monitored (on channel FITC LP505; emission at λ = 505 nm; LP 505, BP 530/30) by flow cytometry (BD LSR II, BD Bioscience, San Jose, CA, equipped with 488 nm; Coherent Sapphire, 22 mW laser.) which is proportional to the cellular uptake. Data were analysed with FACSDiVa 5.0 software.

CHO-K1 cells = assay: In vitro cytotoxicity assay (CCK-8); type: cell-based, Chinese Hamster; conditions: different concentrations (0-20 µM), 1 h, 37 °C
Experimental: Cytotoxicity was determined with the Cell Counting Kit 8 (CCK-8) from Dojindo Molecular Technologies using CHO-K1 cells. This colorimetric assay allows to measure the viability of cells. 96-well plates were inoculated with 100 μL/well of a suspension of cells (2 × 10^4 cells/well). […] After washing, the cells were incubated with 100 μL of 10% CCK-8 in DMEM for 3 h and the absorbance was measured at λ= 450 nm with a microplate reader (Polarstar Optima). Controls corresponded to untreated cells with DMEM (negative control, 100% viability) and cells treated with 0.1% of Triton X-100 (positive control, 0% viability).

CN(C)c1ccc(/N=N/c2ccc(C(=O)N[C@@H](CCCNC(=N)N)C(=O)N[C@@H](CCCNC(=N)N)C(=O)N[C@@H](CCCNC(=N)N)C(=O)N[C@@H](CCCNC(=N)N)C(=O)N[C@@H](CCCNC(=N)N)C(=O)N[C@@H](CCCNC(=N)N)C(=O)N[C@@H](CCCCNC(=O)c3ccc4c(c3)C(=O)OC43c4ccc(O)cc4Oc4cc(O)ccc43)C(N)=O)cc2)cc1 [Dabcyl–Arg6–Lys(Cf)–NH2] (X1-RRRRRRK(5FAM)-NH2)
Cellular uptake, times higher than that of octaarginine (HL-60 cells; HL-60, 5 μM): 4 times | Cellular uptake, times higher than that of octaarginine (HL-60 cells; HL-60, 10 μM): 1.5 times | Cytotoxic effect on CHO-K1 cells (CHO-K1 cells): no cytotoxic effect
